We go through two molecules from US8507489B2, “Bicyclic triazoles as protein kinase modulators” (SGX Pharmaceuticals, Inc., priority 2006, dated 2013).

SMILES strings stand for the structures. Some results are limits rather than exact numbers.

Assay type in all cases: biochemical
The target of one assay is MAP2K1 (MEK1) (Homo sapiens, UniProt Q02750). In words: SelectScreen Kinase Profiling MAP2K1. The text has this: (§1) SelectScreen™ is a trademark screening assay protocol for kinases developed by Invitrogen Corporation, Madison, Wis. Details on assay conditions can be found on the company's website.
In the next assay the target is RET (Homo sapiens, UniProt P07949). In words: SelectScreen Kinase Profiling RET.
Excerpt: as §1

The target in the next assay is ABL1 Y253F (Homo sapiens, UniProt P00519, Y253F). The assay can be described thus: SelectScreen Kinase Profiling ABL1 Y253F.
Excerpt: as §1

For the next assay, the target named is EPHA2 (Homo sapiens, UniProt P29317). In words: SelectScreen Kinase Profiling EPHA2.
Excerpt: as §1

A further assay addresses IGF1R (Homo sapiens, UniProt P08069). The assay can be described thus: SelectScreen Kinase Profiling IGF1R.
Excerpt: as §1

A further assay addresses AURKA (Aurora A) (Homo sapiens, UniProt O14965). The assay can be described thus: SelectScreen Kinase Profiling AURKA.
Excerpt: as §1

A further assay deals with IKBKB (IKK beta) (Homo sapiens, UniProt O14920). The assay can be described thus: SelectScreen Kinase Profiling IKBKB.
Excerpt: as §1

A further assay deals with MERTK (cMER) (Homo sapiens, UniProt Q12866). The assay can be described thus: SelectScreen Kinase Profiling MERTK.
Excerpt: as §1

In the next assay the target is PTK2B (FAK2) (Homo sapiens, UniProt Q14289). In words: SelectScreen Kinase Profiling PTK2B.
Excerpt: as §1

For the next assay, the target named is AKT1 (PKB alpha) (Homo sapiens, UniProt P31749). In words: SelectScreen Kinase Profiling AKT1.
Excerpt: as §1

In another assay the target is EGFR (ErbB1) (Homo sapiens, UniProt P00533). In words: SelectScreen Kinase Profiling EGFR.
Excerpt: as §1

In another assay the target is GRK4 (Homo sapiens, UniProt P32298). The assay can be described thus: SelectScreen Kinase Profiling GRK4.
Excerpt: as §1

The next assay concerns the target PDGFRA T674I (Homo sapiens, UniProt P16234, T674I). The assay can be described thus: SelectScreen Kinase Profiling PDGFRA T674I.
Excerpt: as §1

Another assay addresses TEK (Tie2) (Homo sapiens, UniProt Q02763). In words: SelectScreen Kinase Profiling TEK.
Excerpt: as §1

The target in another assay is PDK1 (Homo sapiens, UniProt O15530). The assay can be described thus: SelectScreen Kinase Profiling PDK1.
Excerpt: as §1

A further assay addresses c-MET (Homo sapiens, UniProt P08581). In words: MET luminescence-based enzyme assay (Kinase-Glo). How it is done: The subscript designates positive or negative controls. The Z′ score for a robust screening assay should be ≧0.50. The typical threshold=μ+−3*σ+. Any value that falls below the threshold was designated a “hit”.
MET Luminescence-Based Enzyme Assay
MET kinase (see below), Kinase-Glo™ (Promega Cat#V6712).
Negative controls contained 10 μM staurosporine.
(Kinase-Glo reads ATP consumption through a luciferase reaction.)

The target of the next assay is MET (cMet) (Homo sapiens, UniProt P08581). The assay can be described thus: SelectScreen Kinase Profiling MET.
Excerpt: as §1

In another assay the target is FRAP1 (mTOR) (Homo sapiens, UniProt P42345). The assay can be described thus: SelectScreen Kinase Profiling FRAP1.
Excerpt: as §1

Another assay concerns the target KDR (VEGFR2) (Homo sapiens, UniProt P35968). The assay can be described thus: SelectScreen Kinase Profiling KDR.
Excerpt: as §1

The target of a further assay is MET M1250T (Homo sapiens, UniProt P08581, M1250T). In words: SelectScreen Kinase Profiling MET M1250T.
Excerpt: as §1

Chain of MAP2K1 (MEK1) (Q02750 whole entry): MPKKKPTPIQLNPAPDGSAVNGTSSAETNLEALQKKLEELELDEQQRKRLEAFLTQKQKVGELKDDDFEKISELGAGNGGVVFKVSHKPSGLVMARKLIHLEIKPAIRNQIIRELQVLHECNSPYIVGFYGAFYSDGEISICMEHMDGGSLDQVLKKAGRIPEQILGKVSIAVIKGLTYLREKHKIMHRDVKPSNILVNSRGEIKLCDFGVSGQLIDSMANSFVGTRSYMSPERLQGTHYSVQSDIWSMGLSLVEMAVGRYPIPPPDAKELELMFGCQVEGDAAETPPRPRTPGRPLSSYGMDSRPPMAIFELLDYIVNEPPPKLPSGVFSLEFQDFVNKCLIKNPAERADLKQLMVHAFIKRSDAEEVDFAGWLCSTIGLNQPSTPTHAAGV
Chain of GRK4 (P32298 whole entry): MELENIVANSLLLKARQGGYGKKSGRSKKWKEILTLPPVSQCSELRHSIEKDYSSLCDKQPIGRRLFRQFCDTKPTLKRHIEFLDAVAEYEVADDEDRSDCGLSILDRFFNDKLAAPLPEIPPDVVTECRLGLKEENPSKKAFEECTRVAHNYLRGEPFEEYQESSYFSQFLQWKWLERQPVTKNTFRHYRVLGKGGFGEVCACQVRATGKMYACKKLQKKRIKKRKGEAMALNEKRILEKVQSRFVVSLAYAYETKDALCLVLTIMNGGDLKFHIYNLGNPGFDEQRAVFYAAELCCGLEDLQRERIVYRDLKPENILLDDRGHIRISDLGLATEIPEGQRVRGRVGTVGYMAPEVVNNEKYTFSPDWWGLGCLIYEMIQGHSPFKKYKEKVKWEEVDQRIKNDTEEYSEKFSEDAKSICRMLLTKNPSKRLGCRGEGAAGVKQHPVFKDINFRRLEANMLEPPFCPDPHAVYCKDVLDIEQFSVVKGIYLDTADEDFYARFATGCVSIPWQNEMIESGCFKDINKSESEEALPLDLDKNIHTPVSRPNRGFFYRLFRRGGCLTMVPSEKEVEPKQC
Chain of PTK2B (FAK2) (Q14289 whole entry): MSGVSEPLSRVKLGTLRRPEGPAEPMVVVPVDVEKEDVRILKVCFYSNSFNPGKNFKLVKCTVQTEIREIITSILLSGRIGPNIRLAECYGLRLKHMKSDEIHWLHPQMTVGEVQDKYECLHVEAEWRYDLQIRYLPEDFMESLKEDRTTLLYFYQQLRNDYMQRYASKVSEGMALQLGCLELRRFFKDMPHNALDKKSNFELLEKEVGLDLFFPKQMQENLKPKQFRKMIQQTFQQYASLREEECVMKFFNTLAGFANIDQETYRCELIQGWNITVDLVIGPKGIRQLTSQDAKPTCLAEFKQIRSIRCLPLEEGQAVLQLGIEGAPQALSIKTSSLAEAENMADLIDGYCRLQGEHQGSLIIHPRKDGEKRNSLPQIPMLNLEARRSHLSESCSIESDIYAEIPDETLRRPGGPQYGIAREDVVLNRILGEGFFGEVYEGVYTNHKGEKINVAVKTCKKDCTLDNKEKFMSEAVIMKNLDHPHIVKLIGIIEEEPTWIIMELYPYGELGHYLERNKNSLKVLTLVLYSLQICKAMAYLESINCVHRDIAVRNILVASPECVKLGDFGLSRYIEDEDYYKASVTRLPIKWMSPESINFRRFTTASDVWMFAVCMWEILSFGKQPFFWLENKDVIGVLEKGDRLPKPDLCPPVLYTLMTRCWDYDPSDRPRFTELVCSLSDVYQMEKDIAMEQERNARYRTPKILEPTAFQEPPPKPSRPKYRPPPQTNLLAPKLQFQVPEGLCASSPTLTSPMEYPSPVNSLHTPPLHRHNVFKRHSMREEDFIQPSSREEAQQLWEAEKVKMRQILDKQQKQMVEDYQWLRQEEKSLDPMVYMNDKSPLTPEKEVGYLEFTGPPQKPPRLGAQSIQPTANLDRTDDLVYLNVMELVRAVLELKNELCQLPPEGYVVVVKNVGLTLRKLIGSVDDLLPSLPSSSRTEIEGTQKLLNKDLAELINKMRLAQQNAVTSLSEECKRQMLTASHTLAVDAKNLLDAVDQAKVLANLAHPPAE
Chain of AKT1 (PKB alpha) (P31749 whole entry): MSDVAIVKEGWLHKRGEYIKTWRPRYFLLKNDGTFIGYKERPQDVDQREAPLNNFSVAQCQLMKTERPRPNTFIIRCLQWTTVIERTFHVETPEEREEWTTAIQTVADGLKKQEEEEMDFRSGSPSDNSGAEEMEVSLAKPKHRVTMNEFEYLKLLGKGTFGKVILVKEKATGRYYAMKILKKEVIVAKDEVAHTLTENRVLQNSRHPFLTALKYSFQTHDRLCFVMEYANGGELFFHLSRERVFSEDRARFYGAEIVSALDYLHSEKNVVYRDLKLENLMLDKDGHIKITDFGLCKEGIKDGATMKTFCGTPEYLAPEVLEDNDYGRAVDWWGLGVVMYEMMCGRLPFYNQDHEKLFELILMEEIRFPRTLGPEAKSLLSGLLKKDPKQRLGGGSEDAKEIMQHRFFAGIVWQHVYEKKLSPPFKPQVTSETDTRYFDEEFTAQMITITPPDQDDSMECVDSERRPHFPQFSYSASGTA
Chain of PDGFRA T674I (P16234 24-1089 T674I): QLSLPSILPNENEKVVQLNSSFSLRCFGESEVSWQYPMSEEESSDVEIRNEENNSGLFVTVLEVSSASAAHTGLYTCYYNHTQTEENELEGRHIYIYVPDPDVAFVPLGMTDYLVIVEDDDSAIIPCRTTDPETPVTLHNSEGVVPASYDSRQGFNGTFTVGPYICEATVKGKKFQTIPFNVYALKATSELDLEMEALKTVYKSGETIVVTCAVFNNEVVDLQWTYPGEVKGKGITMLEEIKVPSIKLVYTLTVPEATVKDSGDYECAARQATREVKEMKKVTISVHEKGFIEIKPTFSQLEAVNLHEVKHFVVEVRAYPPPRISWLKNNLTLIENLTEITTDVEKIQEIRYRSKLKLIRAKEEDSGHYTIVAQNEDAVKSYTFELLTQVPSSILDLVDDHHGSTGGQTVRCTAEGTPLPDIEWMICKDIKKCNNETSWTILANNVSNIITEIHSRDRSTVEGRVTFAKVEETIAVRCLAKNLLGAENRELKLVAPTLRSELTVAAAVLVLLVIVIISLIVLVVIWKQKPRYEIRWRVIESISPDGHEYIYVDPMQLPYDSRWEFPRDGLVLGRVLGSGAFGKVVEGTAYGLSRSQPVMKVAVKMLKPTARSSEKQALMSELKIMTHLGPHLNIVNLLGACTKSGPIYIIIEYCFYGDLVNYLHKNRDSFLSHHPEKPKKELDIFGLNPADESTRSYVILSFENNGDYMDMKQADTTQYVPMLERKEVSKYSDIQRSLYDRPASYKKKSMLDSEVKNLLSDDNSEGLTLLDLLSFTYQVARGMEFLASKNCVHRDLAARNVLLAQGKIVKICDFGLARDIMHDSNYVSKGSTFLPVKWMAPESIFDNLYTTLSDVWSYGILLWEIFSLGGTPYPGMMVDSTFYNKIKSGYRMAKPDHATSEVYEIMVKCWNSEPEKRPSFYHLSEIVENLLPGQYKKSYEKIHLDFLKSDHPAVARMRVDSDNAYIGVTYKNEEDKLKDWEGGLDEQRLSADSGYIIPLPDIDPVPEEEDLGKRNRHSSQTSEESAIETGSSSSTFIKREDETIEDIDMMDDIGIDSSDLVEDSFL
Chain of EGFR (ErbB1) (P00533 25-1210): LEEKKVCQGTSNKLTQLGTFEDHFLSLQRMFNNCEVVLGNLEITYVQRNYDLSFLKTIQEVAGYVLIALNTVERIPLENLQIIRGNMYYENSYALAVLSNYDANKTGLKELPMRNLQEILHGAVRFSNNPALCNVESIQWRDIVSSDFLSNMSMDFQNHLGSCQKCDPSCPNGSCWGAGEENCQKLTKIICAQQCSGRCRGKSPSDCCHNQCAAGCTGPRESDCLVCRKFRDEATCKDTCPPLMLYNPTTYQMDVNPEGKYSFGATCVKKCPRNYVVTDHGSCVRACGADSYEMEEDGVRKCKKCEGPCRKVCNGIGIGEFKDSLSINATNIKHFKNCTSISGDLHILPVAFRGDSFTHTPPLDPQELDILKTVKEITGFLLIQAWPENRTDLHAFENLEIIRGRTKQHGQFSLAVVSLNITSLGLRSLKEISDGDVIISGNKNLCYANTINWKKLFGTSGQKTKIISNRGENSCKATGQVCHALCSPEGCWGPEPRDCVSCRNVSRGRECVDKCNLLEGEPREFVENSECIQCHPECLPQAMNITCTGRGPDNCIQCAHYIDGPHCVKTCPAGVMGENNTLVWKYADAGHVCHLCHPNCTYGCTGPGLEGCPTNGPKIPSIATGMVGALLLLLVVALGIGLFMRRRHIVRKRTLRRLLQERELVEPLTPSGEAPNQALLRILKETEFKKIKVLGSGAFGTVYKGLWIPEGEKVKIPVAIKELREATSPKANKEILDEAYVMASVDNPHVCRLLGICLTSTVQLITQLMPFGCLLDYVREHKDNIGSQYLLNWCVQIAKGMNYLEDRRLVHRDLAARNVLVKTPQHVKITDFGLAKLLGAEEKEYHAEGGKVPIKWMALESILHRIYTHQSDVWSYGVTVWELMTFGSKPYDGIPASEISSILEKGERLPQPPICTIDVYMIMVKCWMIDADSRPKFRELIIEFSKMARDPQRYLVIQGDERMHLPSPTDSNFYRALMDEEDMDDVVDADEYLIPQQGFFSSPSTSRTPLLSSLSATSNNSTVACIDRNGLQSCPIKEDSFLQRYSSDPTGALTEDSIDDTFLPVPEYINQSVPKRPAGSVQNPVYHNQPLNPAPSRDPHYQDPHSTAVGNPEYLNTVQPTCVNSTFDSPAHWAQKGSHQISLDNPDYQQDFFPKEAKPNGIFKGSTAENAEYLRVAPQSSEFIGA
Chain of c-MET (P08581 1078-1345 limits assumed): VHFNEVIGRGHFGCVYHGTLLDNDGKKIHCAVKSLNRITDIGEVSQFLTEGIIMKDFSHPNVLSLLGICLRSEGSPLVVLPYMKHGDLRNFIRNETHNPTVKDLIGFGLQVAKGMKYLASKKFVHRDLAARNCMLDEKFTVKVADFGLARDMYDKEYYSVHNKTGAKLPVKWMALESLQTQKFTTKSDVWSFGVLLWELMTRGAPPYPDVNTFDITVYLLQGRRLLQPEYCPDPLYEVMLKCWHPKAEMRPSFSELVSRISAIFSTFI

As for `Cn1cc(-c2ccc3nnc(Sc4ccc5ncccc5c4)n3n2)cn1` [Compound 4, 6-[6-(1-Methyl-1H-pyrazol-4-yl)-[1,2,4]triazolo[4,3-b]pyridazin-3-ylsulfanyl]-quinoline], the inhibition at 1 µM at MAP2K1 (MEK1) was 16%; at RET, 5%; on ABL1 Y253F, 20%; at EPHA2 it was -23%; against IGF1R it was -3%; against AURKA (Aurora A), 18%. Moreover, the inhibition at 1 µM was -5% at IKBKB (IKK beta); 7% on MERTK (cMER); 6% on PTK2B (FAK2); 5% against AKT1 (PKB alpha); -2% at EGFR (ErbB1); 2% on GRK4. The inhibition at 1 µM on PDGFRA T674I is -9%; on TEK (Tie2), 8%; at PDK1 it was 7%.

Regarding `Cc1ccc2nnc(Sc3ccc4ncc(-c5cnn(C)c5)cc4c3)n2n1` [Compound 41, 3-(1-Methyl-1H-pyrazol-4-yl)-6-(6-methyl-[1,2,4]triazolo[4,3-b]pyridazin-3-ylsulfanyl)-quinoline], the IC50 against c-MET is less than 100 nM. Also, the inhibition at 1 µM at MAP2K1 (MEK1) was 3%; on RET it was 21%; on ABL1 Y253F, 30%; against EPHA2 it was 2%; at MET (cMet), 98%; on IGF1R, 6%. The inhibition at 1 µM at AURKA (Aurora A) came out at 49%; against IKBKB (IKK beta), 1%; on FRAP1 (mTOR), 0%; against MERTK (cMER), 10%; at KDR (VEGFR2) it was 16%; against PTK2B (FAK2), 12%. The inhibition at 1 µM at MET M1250T was 89%; against AKT1 (PKB alpha), -1%; against EGFR (ErbB1), 0%; against GRK4 it was -4%; against PDGFRA T674I, -1%; on TEK (Tie2), 4%. The inhibition at 1 µM on PDK1 was 6%.

Broadly, the inhibition is the change of the read-out against control, counted positive when it falls. As usually defined, the IC50 is the concentration that inhibits the measured activity by half.
